23 compounds from ChEMBL document CHEMBL1131042, “beta-Lactam derivatives as inhibitors of human cytomegalovirus protease” (J Med Chem, 1998) can be followed below.

Series [1] can be described thus: Time taken to reduce 50% of the concentration of compound in blood plasma. The format is ADME, tissue-based. Conditions: human.
For a further series, the target named is Pancreatic elastase (Sus scrofa, UniProt P08419+P00772). Briefly: Compound was tested for its activity against porcine Pancreatic elastase. The format is protein assay.
A further series has as its target Chymotrypsinogen A (Bos taurus, UniProt P00766). Put plainly: Compound was tested for its activity against bovine pancreatic Alpha-chymotrypsin (BPC).
Another series has as its target T1, Neutrophil elastase (Homo sapiens, UniProt P08246).
T1 sequence (P08246 whole entry): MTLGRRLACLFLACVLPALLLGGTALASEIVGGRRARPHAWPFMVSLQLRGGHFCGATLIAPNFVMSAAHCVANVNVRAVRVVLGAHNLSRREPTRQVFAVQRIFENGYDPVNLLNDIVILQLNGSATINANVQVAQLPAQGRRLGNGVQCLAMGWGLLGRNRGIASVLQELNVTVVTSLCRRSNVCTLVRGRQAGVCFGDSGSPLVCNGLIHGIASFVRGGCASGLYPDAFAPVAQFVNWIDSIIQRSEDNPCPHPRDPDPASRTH
Briefly: Compound was tested for its activity against human leukocyte elastase(HLE).

A word on the half-life: it is how long it takes for the measured level to halve. Low values mean fast loss, high ones slow loss. `O=C1C[C@H](Cc2ccccc2)N1C(=O)NCCc1ccccc1` gave a half-life in series [1] of 36 h. The same measure, in the same setting: for `CN(Cc1ccccc1)C(=O)N1C(=O)C[C@@H]1Cc1ccccc1` the value was 36 h; for `O=C1C[C@H](Cc2ccccc2)N1C(=O)N(Cc1ccccc1)OCc1ccccc1`, below 12 h; for `O=C1C[C@H](Cc2ccccc2)N1C(=O)NCc1ccccn1`, 36 h. The term IC50 denotes the concentration that gives 50% inhibition. Take `C[C@H]1C(=O)N(C(=O)NCc2ccncc2)[C@H]1Cc1ccccc1`: the half-life in series [1] was 36 h. The IC50 on Pancreatic elastase came to 19 µM. With `O=C1C[C@H](Cc2ccccc2)N1C(=O)Nc1ccc(F)cc1`, in series [1], the half-life is below 12 h. In series [1], `CO[C@@H]1C(=O)N(C(=O)NCc2ccncc2)[C@H]1Cc1ccccc1` registered a half-life below 12 h. Also, the IC50 against Chymotrypsinogen A turned out to be 38 µM; at Neutrophil elastase, 0.9 µM; at Pancreatic elastase, 0.3 µM.

Regarding `Cc1ccc(NC(=O)N2C(=O)C[C@@H]2Cc2ccccc2)cc1`, the half-life in series [1] was below 12 h. In series [1], `CC[C@@H]1C(=O)N(C(=O)NCc2ccncc2)[C@H]1Cc1ccccc1` had a half-life of 48 h. In addition, the IC50 was determined as 19 µM against Chymotrypsinogen A and 1.7 µM at Pancreatic elastase.

As for `O=C1C[C@H](Cc2ccccc2)N1C(=O)Nc1ccccc1`, the half-life in series [1] is below 12 h. In series [1], `CON(Cc1ccccc1)C(=O)N1C(=O)C[C@@H]1Cc1ccccc1` had a half-life below 12 h. In series [1], `C[C@@H]1C(=O)N(C(=O)NCc2ccncc2)[C@H]1Cc1ccccc1` gave a half-life of 36 h. At Pancreatic elastase, this compound showed an IC50 of 53 µM.

Compound `O=C1C[C@H](Cc2ccccc2)N1C(=O)N(Cc1ccccc1)C1CC1` had a half-life in series [1] of 48 h. `O=C1C[C@H](Cc2ccccc2)N1C(=O)NCc1ccccc1` showed a half-life in series [1] of 36 h. The half-life values of the last two compounds are within 1.5-fold of each other. As to `CS[C@@H]1C(=O)N(C(=O)NCc2ccncc2)[C@H]1Cc1ccccc1`, in series [1], the half-life was below 12 h. The figures for the IC50 against Chymotrypsinogen A, on Neutrophil elastase and at Pancreatic elastase were 2.2 µM, below 0.2 µM and below 0.2 µM, respectively. As for `C=CC[C@@H]1C(=O)N(C(=O)NCc2ccncc2)[C@H]1Cc1ccccc1`, the half-life in series [1] was 36 h. The IC50 on Chymotrypsinogen A amounted to 6 µM; against Neutrophil elastase it was 0.3 µM; on Pancreatic elastase, 4.7 µM. In series [1], `CCN(Cc1ccccc1)C(=O)N1C(=O)C[C@@H]1Cc1ccccc1` had a half-life of 48 h. `COc1ccc(NC(=O)N2C(=O)C[C@@H]2Cc2ccccc2)cc1` gave a half-life in series [1] of 12 h.

`O=C1C[C@H](Cc2ccccc2)N1C(=O)NCc1ccncc1` had a half-life in series [1] of 24 h. Also, the IC50 on Chymotrypsinogen A, on Neutrophil elastase and at Pancreatic elastase was above 75 µM throughout. `O=C1C[C@H](Cc2ccccc2)N1C(=O)NC1CCCCC1`: the half-life in series [1] is 24 h. The compound `O=C1C[C@H](Cc2ccccc2)N1C(=O)NCc1cccnc1` had a half-life in series [1] of 24 h. In series [1], `CC1(C)C(=O)N(C(=O)NCc2ccncc2)[C@H]1Cc1ccccc1` had a half-life of 120 h. The 50% inhibitory concentration (IC50) against Chymotrypsinogen A was above 75 µM; against Neutrophil elastase, 3 µM; at Pancreatic elastase, 45 µM. In series [1], `CC1(C)C(=O)N(C(=O)NCc2ccncc2)C1Cc1ccccc1` (single isomer, unassigned) gave a half-life of 120 h.
